# Results taken from patent US20020091095A1, “Modulation of Fas and FasL expression” (priority 1999, published 2002).
# Assays:
# Fas [1] = experiment: Inhibition of Fas expression on Jurkat cells by cycloheximide; type: cell-based, human; settings: Jurkat cells, 0.1 μg/ml cycloheximide
# Method: (§1) Fas and FasL expression were measured by flow cytometry using anti-Fas FITC-conjugated monoclonal antibodies and anti-FasL PE-conjugated monoclonal antibodies in a FACScalibur Flow Cytometer (Becton Dickinson, San Jose, Calif., USA) using the CELLQuest program (Becton Dickinson).
# (§2) Results are expressed as percentage (%) increase in the expression of Fas and of FasL measured on treated cells compared to control cells.
# Jurkat human leukemia T cells were pre-incubated with 0.0 μg/ml (−CHX) or with 0.1 μg/ml of cycloheximide (+CHX) for 1 h. Ten μg/ml or 100 μg/ml of 6 base SEQ ID NO:5 (GGGTGG) was added to both the −CHX and +CHX cells and the incubation was continued for 24 hours and for 48 hours (Table 10).
# Fas [2] = experiment: Fas expression at the cell surface by flow cytometry, Jurkat cells; type: cell-based; settings: Jurkat human leukemia T cells, 100 μg/ml sequence, 48 h, treated vs control cells
# Method: (§3) Cancer cells and PBMCs were seeded in 6 well flat-bottom microplates and were maintained at 37° C. in a 5% CO2 atmosphere. Unless stated otherwise, 2×10^5 cells/ml were incubated for 48 h with 0 μg/ml (control) or 100 μg/ml ([…]) (treated) of the sequences.
# as §1, §2
# (§4) Jurkat human leukemia T cells are an atypical multi-drug resistant human suspension tumor cell model.
# FasL [3] = experiment: FasL expression at the cell surface by flow cytometry, Jurkat cells; type: cell-based; settings: Jurkat human leukemia T cells, 100 μg/ml sequence, 48 h, treated vs control cells
# Method: as §3, §1, §2, §4
# Fas [4] = experiment: Fas expression at the cell surface by flow cytometry, PBMCs; type: cell-based, human; settings: 100 μg/ml sequence, 48 h, treated vs control cells
# Method: (§5) Peripheral blood mononuclear cells (hereinafter, “PBMCs”) were isolated from human blood by Ficoll-Hypaque (Amersham Pharmacia Biotech, Baie d'Urfée, Québec, Canada) density gradient centrifugation.
# as §3, §1, §2
# FasL [5] = experiment: FasL expression at the cell surface by flow cytometry, PBMCs; type: cell-based, human; settings: 100 μg/ml sequence, 48 h, treated vs control cells
# Method: as §5, §3, §1, §2
# Fas [6] = experiment: Fas expression at the cell surface by flow cytometry, T-24 cells; type: cell-based, human; settings: T-24 bladder cancer cells, 100 μg/ml sequence, 48 h, treated vs control cells
# Method: as §3, §1, §2
# (§6) T-24 bladder cancer cells are a p53 mutated human cell line T-24 cells (1.0×10^5 cells/ml) were incubated with the 6 base sequences shown in Table 4.
# FasL [7] = experiment: FasL expression at the cell surface by flow cytometry, T-24 cells; type: cell-based, human; settings: T-24 bladder cancer cells, 100 μg/ml sequence, 48 h, treated vs control cells
# Method: as §3, §1, §2, §6
# Fas [8] = experiment: Fas expression at the cell surface by flow cytometry, UMUC-3 cells; type: cell-based, human; settings: UMUC-3 bladder cancer cells, 100 μg/ml sequence, 48 h, treated vs control cells
# Method: as §3, §1, §2
# (§7) UMUC-3 bladder cancer cells are a P-glycoprotein overexpressing human cell line.
# FasL [9] = experiment: FasL expression at the cell surface by flow cytometry, UMUC-3 cells; type: cell-based, human; settings: UMUC-3 bladder cancer cells, 100 μg/ml sequence, 48 h, treated vs control cells
# Method: as §3, §1, §2, §7
# Fas [10] = experiment: Fas expression at the cell surface by flow cytometry, OVCAR-3 cells; type: cell-based, human; settings: OVCAR-3 ovarian cancer cells, 100 μg/ml sequence, 48 h, treated vs control cells
# Method: as §3, §1, §2
# (§8) OVCAR-3 ovarian cancer cells are a p53 mutated, p21/waf-1/Cip deleted, metastatic human solid tumor model.
# FasL [11] = experiment: FasL expression at the cell surface by flow cytometry, OVCAR-3 cells; type: cell-based, human; settings: OVCAR-3 ovarian cancer cells, 100 μg/ml sequence, 48 h, treated vs control cells
# Method: as §3, §1, §2, §8
# Fas [12] = experiment: Fas expression at the cell surface by flow cytometry, SK-OV-3 cells; type: cell-based, human; settings: SK-OV-3 ovarian cancer cells, 100 μg/ml sequence, 48 h, treated vs control cells
# Method: as §3, §1, §2
# (§9) SK-OV-3 ovarian cancer cells are a p53 mutated, p21/waf-1/Cip deleted, p15^ink4B,p16^ink4 deleted metastatic human solid tumor model.
# FasL [13] = experiment: FasL expression at the cell surface by flow cytometry, SK-OV-3 cells; type: cell-based, human; settings: SK-OV-3 ovarian cancer cells, 100 μg/ml sequence, 48 h, treated vs control cells
# Method: as §3, §1, §2, §9
# Fas [14] = experiment: Fas expression at the cell surface by flow cytometry, LNCaP cells; type: cell-based, human; settings: LNCaP prostate cancer cells, 100 μg/ml sequence, 48 h, treated vs control cells
# Method: as §3, §1, §2
# (§10) LNCaP prostate cancer cells are a TGF-beta 1 receptor negative, […], metastatic human solid tumor model.
# FasL [15] = experiment: FasL expression at the cell surface by flow cytometry, LNCaP cells; type: cell-based, human; settings: LNCaP prostate cancer cells, 100 μg/ml sequence, 48 h, treated vs control cells
# Method: as §3, §1, §2, §10
# Fas [16] = experiment: Fas expression at the cell surface by flow cytometry, MCF-7 cells; type: cell-based, human; settings: MCF-7 breast cancer cells, 100 μg/ml sequence, 48 h, treated vs control cells
# Method: as §3, §1, §2
# (§11) MCF-7 human breast cancer cells are a caspase-3 negative, estrogen-dependent human solid tumor model.
# FasL [17] = experiment: FasL expression at the cell surface by flow cytometry, MCF-7 cells; type: cell-based, human; settings: MCF-7 breast cancer cells, 100 μg/ml sequence, 48 h, treated vs control cells
# Method: as §3, §1, §2, §11
# [18] = test system: EL-4 murine T lymphoma cells; experiment: EL-4 murine T lymphoma implanted in C57/BL6 lpr/lpr mice; type: in vivo; settings: for efficacy, dose dependence: 1, 10 or 100 mg/kg
# Method: EL-4 murine T lymphoma cells are implanted into C57/BL6 lpr/lpr (Fas negative mice). The mice are divided into 30 groups of 10 mice. On day 0, group 1 mice receive saline, group 2 mice receive 1, 10 or 100 mg/kg of SEQ. ID NO:5, group 3 mice receive 1, 10 or 100 mg/kg of SEQ. ID NO:16, group 4 receive 1, 10 or 100 mg/kg of SEQ. ID NO:17, group 5 mice receive 1, 10 or 100 mg/kg of SEQ. ID NO: 18, group 6 mice receive anti-Fas antibodies, group 7 mice receive 1, 10 or 100 mg/kg of SEQ. ID NO:5 +anti-Fas antibodies, group 8 mice receive 1, 10 or 100 mg/kg of SEQ. ID NO: 16 +anti-Fas antibodies, group 9 receive 1, 10 or 100 mg/kg of SEQ. ID NO:17 +anti-Fas antibodies, group 10 mice receive 1, 10 or 100 mg/kg of SEQ. ID NO:18 +anti-Fas antibodies. In these different groups, anti-Fas antibodies are administered at any dose in the range of about 0.003 to about 0.3 mg/kg. […] The efficacy of the SEQ. ID NO:5, the SEQ. ID NO: 16 and the SEQ. ID NO: 17 is dose-dependent.
# EAE = EAE in (SJL/J×PL/J) F1 mice induced with myelin basic protein; type: in vivo; settings: for efficacy, dose dependence: 1, 10 or 100 mg/kg; for progression of EAE: sequence 1, 10 or 100 mg/kg + anti-Fas antibodies, for 3 days
# Method: Female (SJL/J×PL/J) F1 mice are injected subcutaneously in both femoral regions with an emulsion containing 0.5 mg of myelin basic protein (MBP) mixed with complete Freund's adjuvant. After 24 h, 400 ng of Bordetella pertussis toxin is administered intraperitoneally. On the day of onset (day 0), group 1 mice receive saline, group 2 mice receive 1, 10 or 100 mg/kg of SEQ. ID NO:5, group 3 mice receive 1, 10 or 100 mg/kg of SEQ. ID NO:16, group 4 mice receive 1, 10 or 100 mg/kg of SEQ. ID NO:17, group 5 mice receive 1, 10 or 100 mg/kg of SEQ. ID NO: 18, group 6 mice receive anti-Fas antibodies, group 7 mice receive 1, 10 or 100 mg/kg of SEQ. ID NO:5 +anti-Fas antibodies, group 8 mice receive 1, 10 or 100 mg/kg of SEQ. ID NO:16 +anti-Fas antibodies, group 9 receive 1, 10 or 100 mg/kg of SEQ. ID NO:17 +anti-Fas antibodies, group 10 mice receive 1, 10 or 100 mg/kg of SEQ. ID NO: 18 +anti-Fas antibodies for 3 days by intracistemal administration (20 μg/day). In these different groups, anti-Fas antibodies are administered at any dose in the range of about 0.003 to about 0.3 mg/kg. […] The efficacy of the SEQ. ID NO:5, the SEQ. ID NO: 16 and the SEQ. ID NO: 17 is dose-dependent.
# [19] = sequence 1, 10 or 100 mg/kg + anti-Fas antibodies, vs all other groups
# [20] = single agent (sequence 1, 10 or 100 mg/kg, or anti-Fas antibodies) vs group 1 (saline)
Compound,% INCREASE Fas (Fas [2]),% INCREASE FasL (FasL [3]),% INCREASE Fas (Fas [4]),% INCREASE FasL (FasL [5]),% INCREASE Fas (Fas [6]),% INCREASE FasL (FasL [7]),% INCREASE Fas (Fas [8]),% INCREASE FasL (FasL [9]),% INCREASE Fas (Fas [10]),% INCREASE FasL (FasL [11]),% INCREASE Fas (Fas [12]),% INCREASE FasL (FasL [13]),% INCREASE Fas (Fas [14]),% INCREASE FasL (FasL [15]),% INCREASE Fas (Fas [16]),% INCREASE FasL (FasL [17]),"efficacy, dose dependence [18]","tumor mass [18, 19]","tumor mass [18, 20]",progression of EAE (EAE),further results
"C[C@@H]1C[C@@H]([C@H](O)CC2CC(=O)NC(=O)C2)C(=O)[C@@H](C)C1 [cycloheximide, reference compound]",–,–,–,–,–,–,–,–,–,–,–,–,–,–,–,–,–,–,–,–,"decrease of Fas expression by cycloheximide (Fas [1]; with 10 μg/ml of SEQ ID NO:5, after 24 h): 92%; decrease of Fas expression by cycloheximide (Fas [1]; with 10 μg/ml of SEQ ID NO:5, after 48 h): 44%; decrease of Fas expression by cycloheximide (Fas [1]; with 100 μg/ml of SEQ ID NO:5, after 24 h): 65%; decrease of Fas expression by cycloheximide (Fas [1]; with 100 μg/ml of SEQ ID NO:5, after 48 h): 23%"
GGGAGG [SEQ ID NO:17],77%,91%,266%,356%,124%,75%,39%,106%,49%,59%,−6%,−16%,48%,55%,127%,194%,dose-dependent,least tumor mass,less tumor mass,least progression of EAE,"efficacy, dose dependence (EAE): dose-dependent"
GGGCGG [SEQ ID NO:18],208%,356%,523%,850%,139%,205%,72%,250%,65%,142%,29%,42%,55%,126%,165%,322%,–,least tumor mass,less tumor mass,least progression of EAE,–
GGGGGG [SEQ ID NO:16],118%,49%,38%,42%,35%,−14%,−5%,10%,−1%,7%,−14%,−28%,6%,13%,−7%,18%,dose-dependent,least tumor mass,less tumor mass,least progression of EAE,"efficacy, dose dependence (EAE): dose-dependent"
